Assay results as given in publication PMC3923439, “Anti-inflammatory properties of a novel peptide interleukin 1 receptor antagonist” (Journal of Neuroinflammation, 2014).

Assays:
[1] = tested on: LPS-induced neuroinflammation; assay: Lipopolysaccharide-induced impairment of social behavior; type: in vivo; details: rat, Ana 100 mg/kg s.c.
Protocol: The peripheral administration of LPS, the active fragment of bacterial endotoxin, results in an increase in the plasma levels of all proinflammatory cytokines and behavioral depression. LPS-induced behavioral depression was assessed by measuring the reduction of the duration of social interaction during 4-minute sessions. Six- to seven-week-old rats were handled for five days, habituated to the test cages and the experiment room and trained for social interaction with three-week-old juvenile rats introduced into the test cage for four minutes two days before the actual experiment. On the day of the experiment, the rats were intraperitoneally injected (i.p.) with saline or LPS (Escherichia coli 0111:B4; Sigma-Aldrich) dissolved in saline (250 μg/kg). Immediately after the i.p. injection, Ilantide-t (Ila; 10 mg/kg, equivalent to 2.1 μmol/kg), Ana ([…], equivalent to 5.8 μmol/kg) or saline was injected subcutaneously. The volume of all of the injections was 1.0 ml/kg. Six experimental groups were used: vehicle i.p./vehicle s.c. (veh/veh; n = 10), vehicle i.p./Ilantide-t s.c. (veh/Ila; n = 8), vehicle i.p./Ana s.c. (veh/Ana; n = 9), LPS i.p./vehicle s.c. (LPS/veh; n = 10), LPS i.p./Ilantide-t s.c. (LPS/Ila; n = 11) and LPS i.p./Ana s.c. (LPS/Ana; n = 11). The injections and weighing of the rats were performed immediately after the first test session (0 h), and the animals were tested and weighed again 2, 4, 6, 8, and 24 hours later. Different juvenile animals were presented on each occasion. Social interaction consisted of anogenital sniffing, licking and chewing the fur of the juveniles by the experimental animals and was monitored with a video camera. […] The duration of social interaction at each time point is expressed as the percentage of baseline values and was averaged for each experimental group. Social interaction was scored by an observer who was blinded to the treatment of the animals. For evaluation of levels of pro- and anti-inflammatory cytokines in blood, rats were injected with LPS and then immediately with either vehicle (n = 8) or Ilantide-t (n = 8) as described above. In addition, a control group of animals (n = 4) was treated with Ilantide-t alone (control). Blood samples were collected at 0, 2 and 6 hours after injections as described for the pharmacokinetics study and stored at -20°C until use. The levels of IL-6, IFN-γ and IL-10 were determined using corresponding rat ELISA kits according to the manufacturer’s protocols (all from BD Biosciences, San Diego, CA, USA).

[2] = tested on: neonatal rat pancreatic islets; assay: IL-1β-induced nitric oxide production (nitrite, Griess reagent); type: cell-based; details: nitrites in supernatants of the apoptosis experiments, four independent experiments
Protocol: (§1) For cell death detection, rat islets were incubated with 150 pg/ml IL-1β (BD Pharmingen, San Diego, CA, USA) alone or in combination with various concentrations of Ana and Ilantide for 24 hours at 37°C in humidified atmospheric air. Rat islet cell death was assessed by cell death detection ELISA (Roche, Lund, Sweden) as previously described. As a surrogate measure of nitric oxide production, Griess reagent (1:1 aqueous mixture of 0.1% naphthylethylenediamine hydrochloride and 1% sulfanilamide + 5% H3PO4) was mixed in a 1:1 ratio with 100 μl of supernatant samples to determine the nitrite content in supernatants from the cell death assays described above.
Figure 8 Effect of Ilantide on interleukin 1β-induced nitric oxide production. Anakinra (A) but none of the peptides, Ilantide-m (B) or Ilantide-t (C), inhibited interleukin 1β (IL-1β)-induced nitric oxide production. The results of four independent experiments are shown. *P < 0.05 and **P < 0.01 compared with cultures treated with IL-1 alone (one-way analysis of variance followed by Dunnett’s post hoc test).

[3] = tested on: neonatal rat pancreatic islets; assay: IL-1β-induced rat islet cell apoptosis (cell death detection ELISA); type: cell-based; details: rat islets, 8.68 nM (150 pg/ml) IL-1β, 24 hours
Protocol: Neonatal rat islets were isolated from 3- to 6-day-old outbred Wistar rats (Taconic, Ejby, Denmark) as previously described. Islets were precultured and maintained in RPMI 1640 medium (Gibco/Life Technologies) supplemented with 20 mmol/L HEPES buffer, 0.038% (wt/vol) NaHCO3, 100 U/ml penicillin, 100 µg/ml streptomycin and 10% (vol/vol) newborn calf serum (NCS) at 37°C in humidified atmospheric air. Prior to experimentation, the islets were randomly distributed to 24-well dishes and incubated for 2 hours in RPMI 1640 medium supplemented as described above, but with 0.5% (vol/vol) NCS relevant reagents were added as indicated.
as §1
Figure 7 Effect of Ilantide on interleukin 1β-induced rat islet cell apoptosis. Rat pancreatic islets were preincubated for 30 minutes in the absence or presence of various concentrations of anakinra (A), Ilantide-m (B) or Ilantide-t (C) and then exposed to […] interleukin 1β (IL-1β) for 24 hours. Cytokine-induced apoptosis was determined by cell death detection enzyme-linked immunosorbent assay. Apoptosis rates are presented as fold induction compared with untreated control islets (white bars). The data from four independent experiments are presented as mean ± SEM. *P < 0.05 and **P < 0.01 compared with cultures treated with IL-1β alone (one-way analysis of variance followed by Dunnett’s post hoc test).

**Q.** For “Ana: recombinantly produced N-terminal methionylated, nonglycosylated version of human IL-1Ra [reference compound]”, which “Effect on LPS-induced body weight decrease” value ([1]; 24 hours after LPS 250 μg/kg i.p., Ilantide-t 10 mg/kg, P < 0.05) is on record?
**A.** Its value is “attenuated the anorexigenic effect of LPS”.

**Q.** What about the “Social behavior per se (without LPS)” value ([1]; Ilantide-t 10 mg/kg s.c., vehicle i.p.) of the same substance?
**A.** Its value is “did not modify social behavior per se”.

**Q.** And the “Effect on LPS-induced depression of social activity (sickness behavior)” value ([1]; LPS 250 μg/kg i.p., Ilantide-t 10 mg/kg s.c., 2 to 24 hours)?
**A.** The value was “No significant effect”.

**Q.** And the “Inhibition of IL-1β-induced nitric oxide production” value [2]?
**A.** Its value is “inhibited”.

**Q.** What about the “Concentration giving maximal inhibition of IL-1β-induced apoptosis” value [3] of the same substance?
**A.** Its value is 86.8 µM.

**Q.** What about the “Maximal inhibition of IL-1β-induced apoptosis” value ([3]; 30 minutes preincubation, four independent experiments) of the same substance?
**A.** Its value is 64%.
